Measured values as given in patent US20180369195A1, “COMBINATION THERAPY FOR TREATMENT OF MELANOMA” (The Regents of the University of California, priority 2015, published 2018).

Experiments:
Assay type in all cases: cell-based, human
β-catenin = experiment: Western blot of β-catenin; conditions: G361, SK-MEL-2 cells pre-treated 3 hours with GSK3β inhibitor, then 20 μM 1-benzyl I3C 24 hours
Description: The western blots employed the following primary antibodies: mouse anti-MITF-M (Thermo-scientific), mouse anti-HSP 90 (BD Biosciences), mouse anti-CDK2, rabbit anti-CDK4, rabbit anti-CDK-6, mouse anti-rabbit BRAF, goat anti-LEF-1, rabbit anti-AXIN, mouse anti-BCL2, (Santa Cruz), rabbit anti-P21, mouse anti-Cyclin D1, rabbit anti-MEK-p, rabbit anti-MEK1/2, rabbit anti-GSK3β rabbit anti-LRP6, rabbit anti-LRP6-phospho (Cell signaling), mouse anti-β-catenin (Invitrogen).

MITF-M = MITF-M protein levels in cultured melanoma cells (western blot, immunofluorescence); conditions: for MITF-M protein levels (western blot): G-361 cells, 48 hours, 200 μM I3C, 10 μM Vemurafenib or 10 μM U0126
Method: (§1) Western Blot analyses of samples electrophoretically fractionated on 12% acrylamide gels were carried out as previously described (Wagle et al., J. Clin. Oncol. 2011. 29(22):3085-3096; Nguyen et al., Chem. Biol. Interact. 2010. 186(3):255-266). Enhanced chemiluminescence (ECL) Lightening reagents were used to visualize the primary antibody bound protein bands in nitrocellulose membranes and the results captured on ECL Autoradiography Film (GE Healthcare, Piscataway, N.J.). The western blots employed the following primary antibodies: mouse anti-MITF-M (Thermo-scientific), mouse anti-HSP 90 (BD Biosciences), mouse anti-CDK2, rabbit anti-CDK4, rabbit anti-CDK-6, mouse anti-rabbit BRAF, goat anti-LEF-1, rabbit anti-AXIN, mouse anti-BCL2, (Santa Cruz), rabbit anti-P21, mouse anti-Cyclin D1, rabbit anti-MEK-p, rabbit anti-MEK1/2, rabbit anti-GSK3β rabbit anti-LRP6, rabbit anti-LRP6-phospho (Cell signaling), mouse anti-β-catenin (Invitrogen).

phosphorylated Erk/MAPK = experiment: Western blot of phosphorylated Erk/MAPK; conditions: G-361 cells, 48 hours; 200 μM I3C, 10 μM Vemurafenib or 10 μM U0126
Method: (§2) Western Blot analyses of samples electrophoretically fractionated on 12% acrylamide gels were carried out as previously described (Wagle et al., J. Clin. Oncol. 2011. 29(22):3085-3096; Nguyen et al., Chem. Biol. Interact. 2010. 186(3):255-266). […] The western blots employed the following primary antibodies: mouse anti-MITF-M (Thermo-scientific), mouse anti-HSP 90 (BD Biosciences), mouse anti-CDK2, rabbit anti-CDK4, rabbit anti-CDK-6, mouse anti-rabbit BRAF, goat anti-LEF-1, rabbit anti-AXIN, mouse anti-BCL2, (Santa Cruz), rabbit anti-P21, mouse anti-Cyclin D1, rabbit anti-MEK-p, rabbit anti-MEK1/2, rabbit anti-GSK3β rabbit anti-LRP6, rabbit anti-LRP6-phospho (Cell signaling), mouse anti-β-catenin (Invitrogen).

CDK4 = experiment: Western blot of CDK4; conditions: G-361 cells, 48 hours; 200 μM I3C, 10 μM Vemurafenib or 10 μM U0126
Method: as §1

SK-MEL-2 cells = experiment: CCK-8 proliferation assay, SK-MEL-2; conditions: 48 hours
Method: […] Cells were treated with 20 μM 1-benzyl I3C every 24 hours for 72 hours and harvested at 24, 48 and 72 hours for western blot and flow cytometric analysis. Cells were treated with 20 μM LiCl or 10 μM BIO for 48 hours before harvesting them for western blots.
Subsequently inhibition of proliferation was assessed using Cell counting Kit-8 (Dojindo) as per the protocol in the user's manual. Briefly, 50 μl of the CCK-8 solution was added to each well along with 450 μl media and incubated for 2-3 hours. The absorbance was read at 450 nm and % inhibition was calculated for each condition standardizing DMSO to zero using the formula: [(100−Value of treatment/Value of DMSO treated control)×100]

phosphorylated MEK = experiment: Western blot of phosphorylated MEK; conditions: G361 and DM738 cells, 10 μM Vemurafenib, 24 hours
Method: as §2

Row | Compound | rescue of 1-benzyl I3C induced downregulation of β-catenin, MITF-M, CDK2, BCl2 (β-catenin) | MITF-M protein levels (western blot) (MITF-M) | phosphorylated Erk/MAPK levels (phosphorylated Erk/MAPK) | CDK4 protein levels (CDK4) | sensitivity of MITF-M inhibition to Vemurafenib (MITF-M; SK-MEL-2 cells (wild-type BRAF), 10 μM Vemurafenib, 24 hours) | antiproliferation in wild-type BRAF cells (SK-MEL-2 cells) | MEK-P levels (phosphorylated MEK)
1 | O=C1Nc2cc(Br)ccc2/C1=C1/Nc2ccccc2/C1=N\O [BIO, 6-bromoindirubin-3′-oxime] | significant rescue |  |  |  |  |  | 
2 | [Cl-].[Li+] [LiCl, Lithium Chloride] | significant rescue |  |  |  |  |  | 
3 | N#CC(=C(/N)Sc1ccccc1N)/C(C#N)=C(\N)Sc1ccccc1N [U0126, reference compound] |  | down regulated | down regulated | down regulated |  |  | 
4 | Vemurafenib [reference compound] |  | down regulated | down regulated | down regulated | not sensitive to Vemurafenib action | ineffective | downregulated MEK-P
